How the values were obtained:
[1] = molecular target: T1, P236L viral reverse transcriptase (Human immunodeficiency virus type 1 group M subtype B, UniProt P04585, P823L); assay: inhibition of viral reverse transcriptase (P236L), cell free assay; assay type: biochemical; conditions: IC50 (Table I, P236L), 30 minutes at 37° C.
T1 construct: P236L viral reverse transcriptase is obtained by PNAS 90: 4713-4717 (1993); made in house
Method in brief: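 E. coli-expressed wild-type or P236L RT extracts incubated with inhibitor 30 min at 37 °C in Tris pH 8.3 with MgCl₂, NaCl, DTT, NP-40, 10 μM [35S]-dNTP, poly rC/rG template and oligo dG/dT primer. Incorporated label counted on DE81 paper; reported as % inhibition and/or IC50.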

[2] = molecular target: T2, viral reverse transcriptase (Wild Type) (Human immunodeficiency virus type 1 group M subtype B, UniProt P04585); assay: inhibition of viral reverse transcriptase (Wild Type), cell free assay; assay type: biochemical; conditions: for IC50: read-out: IC50 (Table II, Wild Type)
T2 construct: Viral reverse transcriptase (Wild Type) is found in extracts from bacterial clones; made in house; host or cells: Escherichia coli
Text: The utility of the pyrimidine-thioalkyl and alkylether anti-AIDS compounds of Formula IA of this invention can be determined by their ability to inhibit viral reverse transcriptase, an enzyme essential for human immunodeficiency virus replication. This enzyme has characteristics which differentiate it from other known cellular polymerases and it is a unique enzyme which is not found in uninfected cells. Viral reverse transcriptase (Wild Type) is found in extracts from bacterial clones prepared according to the procedure described in AIDS Virus Reverse Transcriptase defined by high level expression in Escherichia coli, EMBO J. 6:3133-3137 (1987). P236L viral reverse transcriptase is obtained by PNAS 90: 4713-4717 (1993). Inhibition of this enzyme is determined in a cell free assay which measures the level of radioactive precursors incorporated into DNA. Extracts prepared according to the procedure of Science, 1125-1129 (1981) are incubated in a mixture of inhibitor, 20 mM dithiothreitol, 60 mM sodium chloride, 0.05% NP-40, 10 mM magnesium chloride, 50 mM Tris pH 8.3, 10 μM [^35 S]-labeled deoxynuleoside-5'-triphosphate, 10 μg/ml RNA template (poly rC or poly rG) and 5 μg/ml DNA primer (oligo dG or oligo dT) for 30 minutes at 37° C. Incorporation of radio-labeled percursor is determined by spotting aliquots of the reaction mixture on DE81 paper, washing the papers to remove unincorporated percursor, drying and determining counts. The results (IC50 means the concentration, in μM of drug, required to inhibit the reverse transcriptase activity (P236L and Wild Type) to the extent of 50%) of various assay(s) are combined and reported as % inhibition and/or IC50 (calculated) in Table I (P236L) and Table II (Wild Type).

Row | Compound | IC50 [1] [nM] | IC50 ([2]; 30 minutes at 37° C.) [nM] | also measured
1 | CCc1ccnc(C(C)Sc2nc(N)cc(Cl)n2)c1 (centres unmarked) [Example 216, 4-Amino-6-chloro-2-(1-(4-ethyl-2-pyridyl)ethyl)thio-pyrimidine] | 30 | 27 | 
2 | COC(=O)C(Sc1nc(N)cc(Cl)n1)c1cc(C)ccn1 (centres unmarked) [Example 220, 4-Amino-6-chloro-2-(1-(4-methyl-2-pyridyl)-1-carbomethoxy-methyl)thio-pyrimidine] | 50000 |  | inhibition at 50 µM [2]: 19%
3 | C=C(C)c1ccnc(C(C)Sc2nc(N)cc(Cl)n2)c1 (centres unmarked) [Example 221, 4-Amino-6-chloro-2-(1-(4-(1-methylethenyl)-2-pyridyl)ethyl)thio-pyrimidine] | 39 | 19 | 
4 | CC(C)c1ccnc(C(C)Sc2nc(N)cc(Cl)n2)c1 (centres unmarked) [Example 223, 4-Amino-6-chloro-2-(1-(4-(1-methylethyl)-2-pyridyl)ethyl)thio-pyrimidine] | 68 | 60 | 
5 | CC(C)c1ccnc(C(C)Sc2nc(N)c(Br)c(Cl)n2)c1 (centres unmarked) [Example 225] | 67 | 101 | 
6 | CC(Sc1nc(N)cc(Cl)n1)c1cc2ccccc2cn1 (centres unmarked) [Example 230, 4-Amino-6-chloro-2-(1-(3-isoquinolyl)ethyl)thio-pyrimidine] | 39 | 19 | 
7 | CC(Sc1nc(N)cc(Cl)n1)c1cc2c(cn1)CCCC2 (centres unmarked) [Example 233, 4-Amino-6-chloro-2-(1-(3-(5,6,7,8-tetrahydroisoquinolyl))ethyl)thiopyrimidine] | 68 | 67 | 
8 | CC(Sc1nc(N)cc(C(F)(F)F)n1)c1cc2c(cn1)CCCC2 (centres unmarked) [Example 234, 4-Amino-6-trifluoromethyl-2-(1-(3-(5,6,7,8-tetrahydro-isoquinolyl))ethyl)thio-pyrimidine] | 170 | 131 | 
9 | CC(Sc1nc(N)cc(Cl)n1)c1cc2ccoc2c(Cl)n1 (centres unmarked) [Example 237, 4-Amino-6-chloro-2-(1-(7-chlorofuro[2,3c]pyridine-5-yl)ethyl)thio-pyrimidine] | 26 | 15 | 
10 | CC(Sc1nc(N)cc(Cl)n1)c1cc2ccoc2cn1 (centres unmarked) [Example 238, 4-Amino-6-chloro-2-(1-(furo[2,3-c]pyridin-5-yl)ethyl)thio-pyrimidine] | 11 | 7 | 
11 | CC(Sc1nc(N)cc(C(F)(F)F)n1)c1cc2ccoc2cn1 (centres unmarked) [Example 239, 4-Amino-6-trifluoromethyl-2-(1-(furo[2,3-c]pyridin-5-yl)ethyl)thio-pyrimidine] | 88 | 50 | 
12 | Cc1cc2cc(C(C)Sc3nc(N)cc(Cl)n3)nc(Cl)c2o1 (centres unmarked) [Example 240, 4-Amino-6-chloro-2-(1-(7-chloro-2-methylfuro[2,3c]pyridin-5-yl)ethyl)thio-pyrimidine] | 116 | 381 | 
13 | Cc1cc2cc(C(C)Sc3nc(N)cc(C(F)(F)F)n3)nc(Cl)c2o1 (centres unmarked) [Example 241, 4-Amino-6-trifluoromethyl-2-(1-(7-chloro-2-methylfuro[2,3c]pyridine-5-yl)ethyl)thio-pyrimidine] | 334 | 82 | 
14 | Cc1cc2cc(C(C)Sc3nc(N)cc(Cl)n3)ncc2o1 (centres unmarked) [Example 242, 4-Amino-6-chloro-2-(1-(2-methylfuro[2,3c]pyridine-5-yl)ethyl)thio-pyrimidine] | 118 | 282 | 
15 | Cc1cc2cc(C(C)Sc3nc(N)cc(C(F)(F)F)n3)ncc2o1 (centres unmarked) [Example 243, 4-Amino-6-trifluoromethyl-2-(1-(2-methylfuro[2,3c]pyridine-5-yl)ethyl)thio-pyrimidine] | 188 | 495 | 
16 | C=Cc1cc(C(C)Sc2nc(N)cc(Cl)n2)nc(Cl)c1OC (centres unmarked) [Example 244, 4-Amino-6-chloro-2-(1-(6-chloro-5-methoxy-4-vinyl-2-pyridyl)ethyl)thio-pyrimidine] | 186 | 141 | 
17 | CCc1cc(C(C)Sc2nc(N)cc(Cl)n2)ncc1OC (centres unmarked) [Example 245, 4-Amino-6-chloro-2-(1-(4-ethyl-5-methoxy-2-pyridyl)ethyl)thio-pyrimidine] | 191 | 343 | 
18 | Cc1coc2cnc(C(C)Sc3nc(N)cc(Cl)n3)cc12 (centres unmarked) [Example 246, 4-Amino-6-chloro-2-(1-(3-methylfuro[2,3c]pyridine-5-yl)ethyl)thio-pyrimidine] | 31 | 24 | 
19 | CC(Sc1nc(N)cc(Cl)n1)c1cc2c(cn1)OCC2 (centres unmarked) [Example 247, 4-Amino-6-chloro-2-(1-(2,3-dihydrofuro[2,3c]pyridine-5-yl)ethyl)thio-pyrimidine] | 61 | 72 | 

Row | Compound | IC50 [1] [nM] | IC50 ([2]; 30 minutes at 37° C.) [nM] | also measured
20 | CC(Sc1nc(N)cc(Cl)n1)c1cc2c(cn1)OCC2(C)C (centres unmarked) [Example 248, 4-Amino-6-chloro-2-(1-(3,3-dimethyl-2,3-dihydrofuro[2,3c]pyridine-5-yl)ethyl)thio-pyrimidine] | 18 | 72 | 
21 | CCc1coc2cnc(C(C)Sc3nc(N)cc(Cl)n3)cc12 (centres unmarked) [Example 249, 4-Amino-6-chloro-2-(1-(3-ethylfuro[2,3c]pyridine-5-yl)ethyl)thio-pyrimidine] | 10 | 23 | 
22 | CC(Sc1nc(N)cc(Cl)n1)c1cc(C2CCCC2)ccn1 (centres unmarked) [Example 253] | 200 | 203 | 
23 | CC(Sc1nc(N)cc(Cl)n1)c1cc(C2CC2)ccn1 (centres unmarked) [Example 255] | 100 |  | inhibition at 1 µM [2]: 96%
24 | CCC(C)c1ccnc(C(C)Sc2nc(N)cc(Cl)n2)c1 (centres unmarked) [Example 256, 4-amino-6-chloro-2-(1-(4-(1-methylpropyl)-2-pyridyl)-ethyl)thio-pyrimidine] | 100 | 93 | 
25 | CC(Sc1nc(N)cc(Cl)n1)c1cc(C2CCCCC2)ccn1 (centres unmarked) [Example 257] | 500 |  | inhibition at 10 µM [2]: 78%
26 | CC(Sc1nc(N)cc(Cl)n1)c1cc(N(C)C)ccn1 (centres unmarked) [Example 259] | 30 | 87 | 
27 | CC(C)c1cncc(C(C)Sc2nc(N)cc(Cl)n2)c1 (centres unmarked) [Example 260, 4-amino-6-chloro-2-(1-(5-(1-methylethyl)-3-pyridyl)-ethyl)thio-pyrimidine] | 30 | 70 | 
28 | CCC(CC)c1ccnc(C(C)Sc2nc(N)cc(Cl)n2)c1 (centres unmarked) [Example 261, 4-amino-6-chloro-2-(1-(4-(1-ethylpropyl)-2-pyridyl)-ethyl)thio-pyrimidine] | 70 | 59 | 
29 | CC(C)Oc1ccnc(C(C)Sc2nc(N)cc(Cl)n2)c1 (centres unmarked) [Example 263] | 100 |  | inhibition at 1 µM [2]: 86%
30 | CC(Sc1nc(N)cc(C(F)(F)F)n1)c1cc(C(C)(C)C)ccn1 (centres unmarked) [Example 269, 4-amino-6-trifluoromethyl-2-(1-(4-(1-dimethylethyl)-2-pyridyl)-ethyl)thio-pyrimidine] | 200 | 441 | 
31 | Nc1cc(C(F)(F)F)nc(SCc2ccc3ccccc3c2)n1 [Example 270, 4-amino-6-trifluoromethyl-2-(2-naphthylmethyl)thio-pyrimidine] | 290 | 434 | 
32 | CC(C)c1ccnc(CSc2nc(N)cc(C(F)(F)F)n2)c1 [Example 271, 4-amino-6-trifluoromethyl-2-((4-(1-methylethyl)2-pyridyl)methyl)thio-pyrimidine] | 50 | 31 | 
33 | CC(C)c1ccnc(C(C)Sc2nc(N)cc(C(F)(F)F)n2)c1 (centres unmarked) [Example 272, 4-amino-6-trifluoromethyl-2-(1-(4-(1-methylethyl)2-pyridyl)ethyl)thio-pyrimidine] | 160 | 112 | 
34 | CC(C)(C)c1ccnc(CSc2nc(N)cc(C(F)(F)F)n2)c1 [Example 273, 4-amino-6-trifluoromethyl-2-((4-(1,1-dimethylethyl)2-pyridyl)methyl)-thio-pyrimidine] | 100 |  | inhibition at 1 µM [2]: 75%
35 | N#Cc1cc(Cl)nc(SCc2ccc3ccccc3c2)n1 [Example 276, 6-chloro-2-(2-naphthylmethyl)thio-4-pyrimidine carbonitrile] | 50000 |  | IC50 (Table II, Wild Type) ([2]; 30 minutes at 37° C.): INACTIVE
36 | N#Cc1cc(N)nc(SCc2ccc3ccccc3c2)n1 [Example 277, 6-amino-2-(2-naphthylmethyl)thio-4-pyrimidine carbonitrile] | 500 |  | inhibition at 10 µM [2]: 84%
37 | Clc1nc(SCc2ccc3ccccc3c2)nc2c1CCN2 [Example 281, 4-chloro-2-(naphthylmethyl)thio-5,6-dihydro-7H-pyrrolo[2,3-d]pyrimidine] | 1000 |  | inhibition at 50 µM [2]: 56%

Reference: patent publication US6043248A, “Alpha-substituted pyrimidine-thioalkyl and alkylether compounds as inhibitors of viral reverse transcriptase” (priority 1997, dated 2000)
